Drawing on patent publication US20230312524A1, “ALPHA1A-ADRENERGIC RECEPTOR AGONISTS AND METHODS OF USE” (CuraSen Therapeutics, Inc., priority 2020, published 2023), this text covers EC50, Emax and intrinsic activity for 22 compounds.

pEC50: −log10 of the molar value. Structures can show the parent of a compound that is named as a salt. Where two headings read alike, the source gives them in different places.

As usually defined, the Emax is the greatest response seen or fitted, relative to the assay's reference.

Assay [1] deals with T1, α1A-ARS (Homo sapiens, UniProt P35348).
T1 sequence (P35348 1-466): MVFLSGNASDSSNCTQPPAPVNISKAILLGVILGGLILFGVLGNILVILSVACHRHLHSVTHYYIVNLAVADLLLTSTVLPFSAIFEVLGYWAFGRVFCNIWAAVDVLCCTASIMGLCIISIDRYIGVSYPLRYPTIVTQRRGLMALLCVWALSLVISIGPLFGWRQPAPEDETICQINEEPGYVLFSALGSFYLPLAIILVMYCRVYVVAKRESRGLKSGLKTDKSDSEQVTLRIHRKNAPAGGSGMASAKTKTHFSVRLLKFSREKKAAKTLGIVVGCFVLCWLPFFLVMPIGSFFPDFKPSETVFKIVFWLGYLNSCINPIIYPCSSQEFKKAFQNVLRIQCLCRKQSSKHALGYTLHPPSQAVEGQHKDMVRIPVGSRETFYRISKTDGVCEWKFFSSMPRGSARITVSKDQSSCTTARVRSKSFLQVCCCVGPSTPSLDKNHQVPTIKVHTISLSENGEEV
Briefly: Calcium flux assay (Calcium 6 dye) in cells expressing an α1-AR. Type of assay: cell-based. The following applies: for Emax: read-out: Average Emax. (Calcium assays in cells follow changes in intracellular calcium, usually with a dye or a luminescent sensor.)

For assay [2], the target named is T2, α1A-adrenergic receptor (Homo sapiens, UniProt P35348).
T2 sequence (P35348 1-466): T1 sequence (P35348 1-466)
The note with it: as compared to noradrenaline; InsPs accumulation assay; Blue et al., Table 1; cited from earlier work.

In assay [3] the target is T2, α1A-adrenergic receptor. The note with it: as compared to noradrenaline; FLIPR assay; Blue et al., Table 1; cited from earlier work.
[4] abbreviates: calcium flux, α1A-AR, mean of at least three experiments, read-out: Average PEC50.
[5] abbreviates: calcium flux, α1A-AR, maximum effect relative to full agonist epinephrine.

Turning to `Cc1cc(CC2=NCCN2)cc(OC(F)F)c1` [Compound 148], in assay [1] (setting [4]), the pEC50 is 6.01 to 8.00. Moreover, the Emax in assay [1] was above 61%.
In the case of `Cc1c(CC2=NCCN2)ccc(S(=O)(=O)C(F)F)c1Cl` [Compound 149], the Emax in assay [1] (setting [5]) lay within 21 to 60%. Moreover, the pEC50 in assay [1] (setting [4]) was below 6.00.
With `CCc1c(CC2=NCCN2)ccc(S(=O)(=O)C(F)(F)F)c1Cl` [Compound 150], the maximum response (Emax) in assay [1] (setting [5]) fell in the range of 21 to 60%. The pEC50 in assay [1] (setting [4]) was below 6.00.
In the case of `CC(F)(F)c1cc(OC(F)F)ccc1CC1=NCCN1` [Compound 151], the pEC50 in assay [1] (setting [4]) was 6.01 to 8.00. In addition, the Emax in assay [1] is 21 to 60%.
Taken in the same sequence, the figures for `Clc1ccc(CC2=NCCN2)cc1` [Compound 152] were below 6.00 and below 20%.
Turning to `Clc1ccccc1CC1=NCCN1` [Compound 153], the pEC50 in assay [1] (setting [4]) was 6.01 to 8.00. The maximum response (Emax) in assay [1] was below 20%.
As for `FC(F)(F)c1ccccc1CC1=NCCN1` [Compound 154], the pEC50 in assay [1] (setting [4]) is below 6.00. In addition, in assay [1], the Emax lay within 21 to 60%.
Turning to `Cc1ccccc1CC1=NCCN1` [Compound 155], the pEC50 in assay [1] (setting [4]) was 6.01 to 8.00. Also, the Emax in assay [1] was in the range of 21 to 60%.
As for `COc1ccccc1CC1=NCCN1` [Compound 156], the pEC50 in assay [1] (setting [4]) was 6.01 to 8.00. The Emax in assay [1] is 21 to 60%.
As for `CC(F)(F)c1ccc(CC2=NCCN2)c(Cl)c1` [Compound 157], the pEC50 in assay [1] (setting [4]) was 6.01 to 8.00. In addition, the Emax in assay [1] was above 61%.
With `c1ccc(-c2ncco2)c(CC2=NCCN2)c1` [Compound 158], in assay [1] (setting [5]), the Emax fell in the range of 21 to 60%. Besides, the pEC50 in assay [1] (setting [4]) was 6.01 to 8.00.
Taken in the same sequence, the figures for `Cc1c(CC2=NCCN2)ccc(S(=O)(=O)C(F)(F)F)c1Cl` [Compound 159] were 21 to 60% and below 6.00.
As for `FC(F)Oc1cccc(CC2=NCCN2)c1Cl` [Compound 160], the pEC50 in assay [1] (setting [4]) is 6.01 to 8.00. The Emax in assay [1] is above 61%.
The corresponding values for `FC(F)Oc1ccc(Cl)c(CC2=NCCN2)c1` [Compound 161] are 6.01 to 8.00 and above 61%.
As to `CC(F)(F)c1cc(OC(F)(F)F)ccc1CC1=NCCN1` [Compound 162], the Emax in assay [1] (setting [5]) lay within 21 to 60%. In addition, in assay [1] (setting [4]), the pEC50 was below 6.00.
Taken in the same sequence, the figures for `C[C@H](O)c1ccc(CC2=NCCN2)c(Cl)c1` [Compound 163] were above 61% and 6.01 to 8.00.
In the case of `C[C@@H](O)c1ccc(CC2=NCCN2)c(Cl)c1` [Compound 164], the Emax in assay [1] (setting [5]) is above 61%. In addition, the pEC50 in assay [1] (setting [4]) is above 8.01.
Consider `Cc1ccc(OC(F)(F)F)cc1CC1=NCCN1` [Compound 165], for which, in assay [1], the pEC50 is 6.01 to 8.00 and the Emax was above 61%.
On to `FC(F)(F)Oc1cccc(CC2=NCCN2)c1Cl` [Compound 166], for which the pEC50 in assay [1] (setting [4]) was 6.01 to 8.00. Further, the maximal effect (Emax) in assay [1] is 21 to 60%.
Taken in the same sequence, the figures for `FC(F)(F)Oc1ccc(Cl)c(CC2=NCCN2)c1` [Compound 167] were 6.01 to 8.00 and above 61%.
As for `Cc1c(OCC2=NCCN2)ccc(Cl)c1NS(C)(=O)=O` [RO 115-1240 (dabuzalgron) HCl salt, dabuzalgron], the intrinsic activity is reported as 0.27 in assay [2] and 0.51 in assay [3].
Consider `Cc1c(OCC2=NCCN2)ccc(Cl)c1NS(C)(=O)=O` [RO 115-1240 (dabuzalgron) free base, dabuzalgron], for which, in assay [2], the intrinsic activity is 0.31.
